Measured values published in EP0583821A1, “Atriopeptins, guanylate cyclase activators, and phosphodiesterase inhibitors as treatment for glaucoma, hydrocephalus and cerebral edema (cranial fluid volume dysfunction)” (THE GENERAL HOSPITAL CORPORATION, priority 1987, dated 1988).

Key:
guanylate cyclase [1] = biological target: T1, guanylate cyclase (Oryctolagus cuniculus, UniProt G1TXB5); test: Guanylate cyclase in membrane fractions of cerebellum; type: biochemical, rabbit; parameters: tissues were homogenized (10 mg wet weight per milliliter); from tissue; host or cells: rabbit cerebral microvessels, choroid plexus, kidney, ciliary process, pia-arachnoid, cerebellum; 100,000 g P1 pellet
T1 sequence (G1TXB5 28-1056): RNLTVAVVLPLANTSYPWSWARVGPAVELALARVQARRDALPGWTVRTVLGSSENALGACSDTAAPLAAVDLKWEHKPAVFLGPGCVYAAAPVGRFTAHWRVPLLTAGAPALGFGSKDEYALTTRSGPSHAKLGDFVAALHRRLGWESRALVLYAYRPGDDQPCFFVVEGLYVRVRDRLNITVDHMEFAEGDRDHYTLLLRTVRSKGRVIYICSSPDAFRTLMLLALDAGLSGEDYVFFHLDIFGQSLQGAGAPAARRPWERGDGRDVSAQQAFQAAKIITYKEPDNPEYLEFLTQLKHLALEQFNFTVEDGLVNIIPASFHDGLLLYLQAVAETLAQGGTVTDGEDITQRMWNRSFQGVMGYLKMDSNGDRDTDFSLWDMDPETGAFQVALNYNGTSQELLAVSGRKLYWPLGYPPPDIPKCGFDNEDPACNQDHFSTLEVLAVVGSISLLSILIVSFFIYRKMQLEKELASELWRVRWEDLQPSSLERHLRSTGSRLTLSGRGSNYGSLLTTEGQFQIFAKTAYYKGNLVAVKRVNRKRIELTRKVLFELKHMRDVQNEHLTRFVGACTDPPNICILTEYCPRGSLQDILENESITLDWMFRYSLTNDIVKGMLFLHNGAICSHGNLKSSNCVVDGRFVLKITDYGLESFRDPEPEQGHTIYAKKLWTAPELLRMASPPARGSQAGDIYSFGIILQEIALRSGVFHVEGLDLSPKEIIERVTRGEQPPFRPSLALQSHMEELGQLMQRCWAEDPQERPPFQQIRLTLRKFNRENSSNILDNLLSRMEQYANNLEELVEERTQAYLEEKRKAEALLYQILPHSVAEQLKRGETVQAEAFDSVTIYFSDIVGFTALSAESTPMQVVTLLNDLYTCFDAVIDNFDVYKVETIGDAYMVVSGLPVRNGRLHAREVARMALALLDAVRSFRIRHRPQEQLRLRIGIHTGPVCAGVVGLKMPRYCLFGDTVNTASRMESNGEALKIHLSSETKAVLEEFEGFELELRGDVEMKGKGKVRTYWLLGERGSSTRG
Description: The effect of rANP on membrane-bound guanylate cyclase and adenylate cyclase activity in various brain-barrier tissues and tissue fractions from rabbit was compared with its activity in cerebrum and cerebellum. Guanylate cyclase was measured as the rate of cyclic GMP formation by modifications of the technique of Waldman et al., supra, incorporated herein by reference. Briefly, tissues were homogenized (10 mg wet weight per milliliter) in 50 mM tris-HCl, pH 8.0, 1 mM EDTA, 1 mM dithiothreitol, and 250 mM sucrose and centrifuged at 100,000g to obtain a P1 pellet. Reaction tubes contained (in 0.3 ml), 50 mM tris, pH 7.6, 6 mM MnCl₂, 0.5 mM 3-isobutyl, 1-methylxanthine (IBMX), 10 mM theophylline, 3 mM GTP, hormone (in 0.03 ml containing 2.5 mM ascorbic acid and 0.1% bovine serum albumin), and 0.06 ml of P1 fraction (40 to 60 ug of protein). The reaction (4 minutes at 30°C) was started by addition of GTP and terminated by addition of 0.3 ml of 150 mM sodium acetate (pH 4.0) and boiling for 3 minutes. Cyclic GMP formed was subsequently measured by radioimmunoassay as described in example 6, infra. Under these conditions, guanylate cyclase activity was linear with time and tissue concentration. Adenylate cyclase activity in P1 fractions was measured according to the method described by Nathanson, et al., Science; 204:843 (1979); Mol. Pharmacol. 18:199 (1980), see Figure 1C . […] Neurosci. […]

guanylate cyclase [2] = biological target: T1, guanylate cyclase; test: Atriopeptin-activated guanylate cyclase in kidney membrane (P1) fractions; type: biochemical, rabbit; parameters: tissues were homogenized (10 mg wet weight per milliliter); from tissue; host or cells: rabbit cerebral microvessels, choroid plexus, kidney, ciliary process, pia-arachnoid, cerebellum; 100,000 g P1 pellet; conditions: mean ± range of duplicate determinations
Description: The effect of rANP on membrane-bound guanylate cyclase and adenylate cyclase activity in various brain-barrier tissues and tissue fractions from rabbit was compared with its activity in cerebrum and cerebellum. Guanylate cyclase was measured as the rate of cyclic GMP formation by modifications of the technique of Waldman et al., supra, incorporated herein by reference. Briefly, tissues were homogenized (10 mg wet weight per milliliter) in 50 mM tris-HCl, pH 8.0, 1 mM EDTA, 1 mM dithiothreitol, and 250 mM sucrose and centrifuged at 100,000g to obtain a P1 pellet. Reaction tubes contained (in 0.3 ml), 50 mM tris, pH 7.6, 6 mM MnCl₂, 0.5 mM 3-isobutyl, 1-methylxanthine (IBMX), 10 mM theophylline, 3 mM GTP, hormone (in 0.03 ml containing 2.5 mM ascorbic acid and 0.1% bovine serum albumin), and 0.06 ml of P1 fraction (40 to 60 ug of protein). The reaction (4 minutes at 30°C) was started by addition of GTP and terminated by addition of 0.3 ml of 150 mM sodium acetate (pH 4.0) and boiling for 3 minutes. Cyclic GMP formed was subsequently measured by radioimmunoassay as described in example 6, infra. Under these conditions, guanylate cyclase activity was linear with time and tissue concentration. Adenylate cyclase activity in P1 fractions was measured according to the method described by Nathanson, et al., Science; 204:843 (1979); Mol. Pharmacol. 18:199 (1980), see Figure 1C . […] Neurosci. Abstr., 10, 899 (1984); Nathanson, et al., Soc. Neurosci. Abstr., 12, 1257 (1986), incorporated herein by reference, but with a lower concentration (0.025%) of trypsin and a rotating tissue tumbler which allowed cleaner fractionation of epithelial cells from erythrocytes and vascular components.
Ciliary process tips were obtained from male, 3-4 kg, New Zealand white rabbits, immediately following sacrifice with an overdose of ether, as described in Nathanson, Invest. Ophthal. Vis. Sci., 21:7981 (1982). […]
Atriopeptin-activated guanylate cyclase activity was measured as the rate of conversion of GTP to cyclic GMP. […]

| Substance | stimulation of guanylate cyclase (guanylate cyclase [1]) | Vmax Stimulation (%) of Guanylate Cyclase Kidney (guanylate cyclase [2]) [%] |
| --- | --- | --- |
| Ser-Leu-Arg-Arg-atriopeptin III (APIII) [rANP 1-28] | moderate amount of stimulation | 129 ± 25 |
| rANP 13-28 (DRIGAQSGLGCNSFRY; Atrial natriuretic peptide; UniProt P01161 135-150, looked up, fragment) | – | 54 ± 4 |
